Experimental data from patent publication US9394549B2, “Method for producing useful chemical substance from terephthalic acid potassium salt” (GENARIS, INC., priority 2012, dated 2016).
Read-outs that look alike come from different tables or passages of the source.

Columns and labels:
[1] = tested on: gallic acid-producing Escherichia coli strain M7032 (pUXPEaLT_HFM145_tphA2A3BA1_tpaK); assay: Production of gallic acid from terephthalic acid salt in jar fermentor culture; assay type: cell-based; settings: for Gallic acid: 0.6 M salt solution as raw material, 48 hours after the start of the main culture; for Ratio of the capacity in production (gallic acid): 48 hours, disodium terephthalate as 100%
Method: A gallic acid plasmid pUXPEaLT_HFM145_tphA2A3BA1_tpaK constructed in Reference Example 2 was introduced into Escherichia coli M7032 strain by a transformation method to obtain a gallic acid-producing Escherichia coli strain M7032 (pUXPEaLT_HFM145_tphA2A3BA1_tpaK). Subsequently, in the same manner as described in Example 2, the preculture of this gallic acid-producing bacterium was prepared and then merely 2% of this preculture was inoculated in a main culture medium to carry out main culture in the above condition. When the bacterial cell turbidity reached about 7 at an absorbance of 600 nm, an inducer m-toluic acid was added such that the final concentration thereof came to 1 mM to express terephthalate 1,2-dioxygenase protein, terephthalate 1,2-dioxygenase reductase protein, terephthalate dihydrodiol dehydrogenase protein, terephthalic acid transporter protein and improved para-hydroxybenzoate hydroxylase. The glucose concentration was measured with time. When the glucose concentration reached 0, the glucose and substrate mixed solution was administered.
(§1) Sampling was carried out 48 hours after the start of the main culture. Each of the samples was subjected to analysis by an LC-TOF type mass spectrometer (Waters Corporation, LCT Premier XE). Identification of gallic acid and protocatechuic acid was carried out with a combination of retention time of high performance liquid chromatography and an accurate mass value from the mass spectrometer, comparing to a standard sample of terephthalic acid and gallic acid.

[2] = tested on: protocatechuic acid-producing Escherichia coli strain M7032 (pUXPEaLT_tphA2A3BA1_tpaK); assay: Production of protocatechuic acid from terephthalic acid salt in jar fermentor culture; assay type: cell-based; settings: for Ratio of the capacity in production (protocatechuic acid): disodium terephthalate as 100%
Method: A protocatechuic acid-producing plasmid pUXPEaLT_tphA2A3BA1_tpaK constructed in Reference Example 2 was introduced into Escherichia coli M7032 strain by a transformation method to obtain a protocatechuic acid-producing Escherichia coli strain M7032 (pUXPEaLT_tphA2A3BA1_tpaK).
Subsequently, in the same manner as described in Example 2, the preculture of the present protocatechuic acid-producing bacterium was prepared and then merely 2% of such a preculture was inoculated in a main culture medium to carry out main culture. When the bacterial cell turbidity reached about 7 at an absorbance of 600 nm, an inducer m-toluic acid was added such that the final concentration thereof came to 1 mM to express terephthalate 1,2-dioxygenase protein, terephthalate 1,2-dioxygenase reductase protein, terephthalate dihydrodiol dehydrogenase protein, and terephthalic acid transporter protein. The glucose concentration was measured with time. When the glucose concentration reached 0, the glucose and substrate mixed solution was administered.
as §1, with “of terephthalic” for “of gallic”, “and protocatechuic” for “and gallic”
(§2) Using the protocatechuic acid-producing Escherichia coli strain M7032 (pUXPEaLT_tphA2A3BA1_tpaK) created in Reference Example 2, in the same manner as described in Example 2, the preculture of the present protocatechuic acid-producing bacteria was prepared and then merely 2% of such a preculture was inoculated in a main culture medium to carry out main culture. When the bacterial cell turbidity reached about 7 at an absorbance of 600 nm, an inducer m-toluic acid was added such that the final concentration thereof came to 1 mM to express terephthalate 1,2-dioxygenase protein, terephthalate 1,2-dioxygenase reductase protein, terephthalate dihydrodiol dehydrogenase protein, and terephthalic acid transporter protein. The glucose concentration was measured with time. When the glucose concentration reached 0, the terephthalic acid salt derived from PET, which was prepared in Example 6, was dissolved such that the concentration thereof was 0.6M, mixed with glucose, and administered to a culture device.
as §1, with “out 52” for “out 48”, “of terephthalic” for “of gallic”, “and protocatechuic” for “and gallic”
as §2, with “acid-producing bacterium” for “acid-producing bacteria”, “time. […]” for “time. When the glucose concentration reached 0, the terephthalic acid salt derived from PET, which was prepared in Example 6, was dissolved such that the concentration thereof was 0.6M, mixed with glucose, and administered to a culture device.”

[3] = Solubility of terephthalic acid salts in water; assay type: physicochemical
Method: 2.99 g (0.018 mol) of terephthalic acid (in a form of powder, manufactured by Sigma-Aldrich Japan; hereinafter, unless otherwise specified, reagents used were ones manufactured by Sigma-Aldrich Japan) and 0.036 mol of potassium hydroxide (in a form of granule) were put in a 50 mL-glass beaker. Distilled water was filled to obtain a volume of about 15 mL. The resulting mixture was covered with aluminum foil as a lid, heated at 50° C. for 60 minutes while stirred by a hot stirrer (manufactured by AS ONE Corporation), and allowed to cool to 30° C. After stirring at 30° C. for 120 minutes or more and confirming the precipitate remained in the solution, 1 mL of the solution was collected and subjected to centrifugation using a high speed micro centrifuge (manufactured by Tomy Seiko Co., Ltd.) (30° C., 14000 rpm (17800 g), 30 seconds) to collect the supernatant.
The concentration of terephthalic acid in this supernatant was measured and regarded as the solubility of dipotassium terephthalate. With regard to the measurement of the concentration of terephthalic acid, the sample was diluted 16,000-fold with 2.5% aqueous acetonitrile solution and analyzed in separation conditions of Table 1 using high performance liquid chromatography (Waters Corporation, LCT Premier XE). Thereafter, the concentration was calculated on the basis of a ratio of the area of terephthalic acid peaks using aqueous terephthalic acid solution with a known concentration as a control.

[4] = 0.6 M salt solution as raw material, 48 hours after the start of the main culture
[5] = salt obtained by depolymerization of PBT (Example 8), 0.6M, 48 hours
[6] = salt obtained by depolymerization of PET (Example 6), 0.6M, 52 hours
[7] = 30 °C, water, thermodynamic from solid, in water at 30° C., rounded values of the summary, read-out: solubility in water at 30° C.
[8] = 30 °C, water, thermodynamic from solid, in water, 30° C., read-out: Solubility

Structure (SMILES): N.O=C([O-])c1ccc(C(=O)O)cc1.[K+] [1-potassium 4-ammonium terephthalate]
- Gallic acid [1]: 8.5 g/L
- Ratio of the capacity in production (gallic acid) [1]: 112%
- Protocatechuic acid [2, 4]: 7.1 g/L
- Ratio of the capacity in production (protocatechuic acid) ([2]; 48 hours): 142%
- solubility [3]: 845 mM
- solubility in water at 30° C. [3]: about 0.85 M

Structure (SMILES): O=C([O-])c1ccc(C(=O)[O-])cc1.[K+].[Na+] [1-potassium 4-sodium terephthalate]
- Gallic acid [1]: 8.4 g/L
- Ratio of the capacity in production (gallic acid) [1]: 111%
- Protocatechuic acid [2, 4]: 7.7 g/L
- Ratio of the capacity in production (protocatechuic acid) ([2]; 48 hours): 154%
- Ratio of the capacity in production (protocatechuic acid) ([2]; salt from PBT, 48 hours): 108%
- Ratio of the capacity in production (protocatechuic acid) ([2]; salt from PET, 52 hours): 108%
- Protocatechuic acid [2, 5]: 11.0 g/L
- Protocatechuic acid [2, 6]: 11.1 g/L
- solubility [3]: 956 mM
- solubility in water at 30° C. [3]: about 0.96 M

Structure (SMILES): O=C([O-])c1ccc(C(=O)[O-])cc1.[K+].[K+] [Dipotassium terephthalate, dipotassium terephthalate]
- Gallic acid [1]: 8.6 g/L
- Ratio of the capacity in production (gallic acid) [1]: 113%
- Protocatechuic acid [2, 4]: 8.3 g/L
- Ratio of the capacity in production (protocatechuic acid) ([2]; 48 hours): 166%
- Ratio of the capacity in production (protocatechuic acid) ([2]; salt from PBT, 48 hours): 114%
- Ratio of the capacity in production (protocatechuic acid) ([2]; salt from PET, 52 hours): 113%
- Protocatechuic acid [2, 5]: 11.6 g/L
- Protocatechuic acid [2, 6]: 11.5 g/L
- solubility [3, 7]: ~1000 mM
- solubility [3, 8]: 1010 mM

Structure (SMILES): O=C([O-])c1ccc(C(=O)[O-])cc1.[Na+].[Na+] [Disodium terephthalate, disodium terephthalate, reference compound]
- Gallic acid [1]: 7.6 g/L
- Ratio of the capacity in production (gallic acid) [1]: 100%
- Protocatechuic acid [2, 4]: 5.0 g/L
- Ratio of the capacity in production (protocatechuic acid) ([2]; 48 hours): 100%
- Ratio of the capacity in production (protocatechuic acid) ([2]; salt from PBT, 48 hours): 100%
- Ratio of the capacity in production (protocatechuic acid) ([2]; salt from PET, 52 hours): 100%
- Protocatechuic acid [2, 5]: 10.2 g/L
- Protocatechuic acid [2, 6]: 10.2 g/L
- solubility [3, 7]: ~630 mM
- solubility [3, 8]: 630 mM
